This note sets out measurements from patent US10500207B2, “Compounds for the treatment of diseases associated with amyloid or amyloid-like proteins” (AC Immune SA, priority 2010, dated 2019).

The test has as its target Aβ1-42 peptide (Homo sapiens, UniProt P05067). In words: Thioflavin T spectrofluorescence assay (ThT-assay): inhibition of Aβ1-42 aggregation (% inhibition at 330 μM; IC50 from dilution series). The note with it: for inhibition at 330 µM: 24 h, read-out: Inhibition at 330 μM [%], ThT assay; for inhibition at 330 µM / Inhibition at 330 μM [%]: 330 μM small molecule, 33 μM Aβ1-42 (10:1), 24 hrs at 37° C., mean ± standard deviation of two independent experiments; for IC50 / Inhibition at 330 μM [%]: ThT assay; for IC50: dilution series 330 μM to 0.08 μM.

Chain of Aβ1-42 peptide (P05067 672-713 limits assumed): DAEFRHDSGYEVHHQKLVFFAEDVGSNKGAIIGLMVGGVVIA
Protocol: Aβ1-42 lyophilized powder (Bachem) was reconstituted in hexafluoroisopropanol (HFIP) to 1 mM. The peptide solution was sonicated for 15 min at room temperature, agitated overnight, and aliquots were made into non-siliconized microcentrifuge tubes. The HFIP was then evaporated under a stream of argon. The resulting peptide film was dried under vacuum for 10 min, tightly sealed and stored at −80° C. until used.
A positive control without a small molecule was prepared to measure maximum RFU. A negative control without Aβ1-42 was prepared for each small molecule. […] The solutions were then incubated for 24 hrs at 37° C., and the spectrofluorescence (relative fluorescence units; RFU) were read in six replicates in black 384-well assay plates (Perkin-Elmer) on a Perkin-Elmer FluoroCount spectrofluorometer. The inhibition of aggregation is expressed as mean % inhibition±1 standard deviation (SD) according to the following equation:
Racemic compounds and their enantiomers were tested for their ability to inhibit amyloid peptide aggregation using the ThT assay. To determine the IC50, the following dilutions of the compounds were used in the ThT assay described above:

With `c1cc2c(C3CCNCC3)c[nH]c2cc1Nc1ccc2[nH]cc(C3CCNCC3)c2c1` [Example 36], the inhibition (as a rule, the drop in the measured response relative to a control, in per cent) at 330 µM stood at 98.2 ± 0.3%.

For the molecule `Cn1c2c(c3ccc(Nc4ccc5c(c4)OCO5)nc31)CCCC2` [Example 169], the inhibition at 330 µM is 92.4 ± 4%.

Take `c1cc2ccc(Nc3ccc4cc[nH]c4n3)nc2[nH]1` [Example 8]: the inhibition at 330 µM was determined as 74.7 ± 6.8%.

Turning to `Cn1cc(C2CCNCC2)c2cc(Nc3ccc4c(C5CCNCC5)cn(C)c4c3)ccc21` [Example 53], the inhibition at 330 µM stood at 96 ± 2.1%.

With `CNC1CCc2c(c3ccc(Nc4ccc(F)c(F)c4)nc3n2C)C1` (racemic) [Example 26, N^2-(3,4-difluorophenyl)-N^8,9-dimethyl-6,7,8,9-tetrahydro-5H-pyrido[2,3-b]indole-2,6-diamine hydrogenchloride], the inhibition at 330 µM turned out to be 93.4 ± 3.9%. Further, for the setting “IC50 μM 1st assay, 1st assay”, 12.2 µM corresponded to half-maximal inhibition (IC50). Besides, half-maximal inhibition (IC50 μM 2nd assay, 2nd assay) (IC50) was put at 16.8 µM.

Regarding `COc1cc(Nc2ccc3c4c(n(C)c3c2)CCC(OC)C4)ccc1F` (stereo not drawn) [Example 124], the inhibition at 330 µM came out at 79.1 ± 3.8%.

Regarding `CN1CCC(c2c[nH]c3cc(Nc4ccc5c(c4)OCC(=O)N5)ccc23)CC1` [Example 87], the inhibition at 330 µM is 80.8 ± 0.5%.

Regarding `FC(F)(F)c1ccc(Nc2ccc3c(C4CCNCC4)c[nH]c3n2)cn1` [Example 61], the inhibition at 330 µM stood at 83 ± 2.1%.

Consider `CNC1CCc2c(c3ccc(Nc4ccc5c(c4)CN(C)CC5)nc3n2C)C1` (stereo not drawn) [Example 158], for which the inhibition at 330 µM came out at 87.8 ± 3.6%.

For the molecule `CNC1CCc2[nH]c3cc(Nc4ccc(OC)c(OC)c4)ccc3c2C1` (stereo not drawn) [Example 120], the inhibition at 330 µM was found to be 100%.

On to `CNC1CCc2[nH]c3nc(Nc4cc(F)c(F)cc4F)ccc3c2C1` (stereo not drawn) [Example 27], for which the inhibition at 330 µM was found to be 86.7 ± 0.8%.

Consider `CN(C)C(=O)c1ccc(Nc2ccc3cc[nH]c3n2)cc1` [Example 5], for which the “Inhibition at 330 μM [%]” value was “no inhibition”.

On to `Cn1cc(C2CCNCC2)c2ccc(Nc3ccc(F)c(F)c3)cc21` [Example 38], for which the inhibition at 330 µM amounted to 90.9 ± 2.7%.

With `c1nc2[nH]cc(C3CCNCC3)c2cc1Nc1ccc2c3c([nH]c2n1)CCCC3` [Example 45], the inhibition at 330 µM was 96.5 ± 3.7%.

Regarding `Fc1ccc(Nc2ccc3[nH]cc(C4CCNCC4)c3c2)cc1F` [Example 55], the inhibition at 330 µM was 75.8 ± 0.8%.

With `c1ccc(Nc2ccc3c(c2)OCO3)cc1` [Example 185], the inhibition at 330 µM was found to be 55.2 ± 6%.

For the molecule `COCCNC1CCc2c(c3ccc(Nc4ccc(OC)c(OC)c4)nc3n2C)C1` (stereo not drawn) [Example 142], the inhibition at 330 µM came to 73.2 ± 6.2%.

Turning to `CNC1(C)CCc2c(c3ccc(Nc4ccc(OC)c(OC)c4)nc3n2C)C1` (stereo not drawn) [Example 90], the inhibition at 330 µM worked out at 75.1 ± 0.3%.

In the case of `CN1CCC(c2cn(C)c3nc(Nc4ccc5c(c4)OCCO5)ccc23)CC1` [Example 150], the inhibition at 330 µM worked out at 83.9 ± 1.5%.

Regarding `COc1ccc(Nc2ccc3c(c2)c2c(n3C)CCC(OC)C2)cc1OC` (stereo not drawn) [Example 121], the inhibition at 330 µM is 91 ± 2.5%.

Regarding `COc1ccc(Nc2ccc3c(C4CCN(C)CC4)cn(C)c3c2)cc1OC` [Example 104], the inhibition at 330 µM stood at 89.3 ± 10.6%.

Consider `c1cc2cc(Nc3ccc4cc[nH]c4n3)cnc2[nH]1` [Example 11], for which the inhibition at 330 µM came to 86.2 ± 8.6%.

Regarding `CNC1CCc2c(c3ccc(Nc4ccc5ncn(C)c5c4)nc3n2C)C1` (stereo not drawn) [Example 159], the inhibition at 330 µM turned out to be 91.9 ± 1.6%.

With `CNC1CCc2c(c3ccc(Nc4ccc5c(c4)OCCO5)nc3n2C)C1` (racemic) [Example 156], the inhibition at 330 µM was 85.1 ± 0.8%. Further, the IC50 – broadly, the concentration that inhibits the measured activity by half – (IC50 μM 1st assay, 1st assay) worked out at 39.7 µM. The molecule further yielded an IC50 (IC50 μM 2nd assay, 2nd assay) of 26.7 µM.

Consider `COC1CCc2c(c3cc(Nc4ccc5c(c4)OCO5)ccc3n2C)C1` (stereo not drawn) [Example 125], for which the inhibition at 330 µM stood at 84.2 ± 5.8%.

Take `CN1CCC(c2cn(C)c3nc(Nc4ccc5c(c4)CN(C)CC5)ccc23)CC1` [Example 152]: the inhibition at 330 µM turned out to be 80.8 ± 3.6%.

`CN1CCc2ccc(Nc3ccc4c(c3)c3c(n4C)CCS(=O)(=O)C3)cc2C1` [Example 180]: the inhibition at 330 µM was 50.2 ± 0.9%.

Turning to `COc1ccc(Nc2ccc3c(C4CCNCC4)c[nH]c3n2)cc1F` [Example 102], the inhibition at 330 µM was 84.1 ± 1.5%.

Take `CN1CCC(c2c[nH]c3cc(Nc4ccc5c(c4)CNCC5)ccc23)CC1` [Example 154]: the inhibition at 330 µM was 86.3 ± 2.6%.

Regarding `COC1CCc2c(c3ccc(Nc4ccc(F)c(F)c4)nc3n2C)C1` (stereo not drawn) [Example 204], the inhibition at 330 µM came out at 93.5 ± 0.4%.

For `c1cc2c(C3CCNCC3)c[nH]c2nc1Nc1ccc2c3c([nH]c2n1)CCCC3` [Example 44], the inhibition at 330 µM amounted to 98.1 ± 0.3%.

As for `c1ccc2c(c1)CCN(c1ccc3c(C4CCNCC4)c[nH]c3c1)C2` [Example 72], the inhibition at 330 µM stood at 97.9 ± 0.5%.

In the case of `CNC1CCc2c(c3ccc(Nc4cccc(N5CCN(C)CC5)c4)nc3n2C)C1` (stereo not drawn) [Example 80], the inhibition at 330 µM stood at 83.3 ± 0.1%.

Consider `CNC1CCc2[nH]c3ccc(Nc4ccc(OC)c(OC)c4)cc3c2C1` (stereo not drawn) [Example 106], for which the inhibition at 330 µM amounted to 86.4 ± 3.8%.

Take `N#Cc1c[nH]c2nc(Nc3ccc(F)cc3)ccc12` [Example 15]: the inhibition at 330 µM is 58.6 ± 9.5%.

As for `CNC1CCc2c(c3cc(Nc4ccc(F)c(OC)c4)cnc3n2C)C1` (stereo not drawn) [Example 138], the inhibition at 330 µM was 69.3 ± 0.7%.

In the case of `CNC1CCc2c(c3ccc(Nc4ccc5c(c4)OCCO5)nc3n2C)C1` (single isomer, unassigned) [Example 217a], the IC50 reads like this: (IC50 μM 1st assay, 1st assay) 28 µM; (IC50 μM 2nd assay, 2nd assay) 23.6 µM.

In the case of `c1cc2ccc(Nc3ccc4cc[nH]c4n3)cc2[nH]1` [Example 12], the inhibition at 330 µM was found to be 75.3 ± 14.5%.

For the molecule `N#Cc1c[nH]c2nc(Nc3cnc4c(C5CCNCC5)c[nH]c4c3)ccc12` [Example 34], the inhibition at 330 µM is 79.2 ± 16.2%.

For the molecule `CN1CCC(c2c[nH]c3cc(Nc4ccc(F)c(F)c4)ccc23)CC1` [Example 22], the inhibition at 330 µM was found to be 84.5 ± 6.8%.

Consider `CN1CCC(c2c[nH]c3cc(Nc4ccc5c(c4)OCO5)ccc23)CC1` [Example 153], for which the inhibition at 330 µM stood at 91.3 ± 4.2%.

As for `CN1CCC(c2c[nH]c3cc(Nc4ccc5[nH]cc(C6CCN(C)CC6)c5c4)ccc23)CC1` [Example 118], the inhibition at 330 µM amounted to 96.8 ± 0.9%.

Regarding `CCOC(=O)N1CCc2c(c3cc(Nc4ccc(F)c(F)c4)ccc3n2C)C1` [Example 199], the inhibition at 330 µM was 68.6 ± 0.5%.

On to `CNC1CCc2c(c3ccc(Nc4ccc(N5CCOCC5)cc4)nc3n2C)C1` (racemic) [Example 42], for which the inhibition at 330 µM amounted to 96.2 ± 2.8%. For the setting “IC50 μM 1st assay, 1st assay”, this molecule gave an IC50 of 63 µM. For the same molecule, half-maximal inhibition (IC50 μM 2nd assay, 2nd assay) (IC50) required 112 µM.

As for `Cn1cc(C2CCNCC2)c2ccc(Nc3ccc4c(c3)OCO4)nc21` [Example 66], the inhibition at 330 µM amounted to 85.1 ± 0.8%.

With `Cn1cc(C2CCNCC2)c2ccc(Nc3ccc4c(c3)OCO4)cc21` [Example 145], the inhibition at 330 µM came out at 88.3 ± 4.9%.

Regarding `CNC1CCc2c(c3cc(Nc4ccc5c(c4)OCCO5)cnc3n2C)C1` (stereo not drawn) [Example 137], the inhibition at 330 µM turned out to be 83.3 ± 3.3%.

For `CN1CCC(c2c[nH]c3ccc(Nc4ccc(F)c(F)c4)cc23)CC1` [Example 21], the inhibition at 330 µM is 74 ± 2.7%.

For the molecule `COC(=O)c1c[nH]c2nc(Nc3ccc4c(C5CCNCC5)c[nH]c4c3)ccc12` [Example 32], the inhibition at 330 µM amounted to 94.7 ± 1%.

Regarding `CNC1CCc2c(c3ccc(Nc4ccc(F)c(F)c4)nc3n2C)C1` (single isomer, unassigned) [Example 214a], the IC50 came out at 35.4 µM (IC50 μM 1st assay, 1st assay) and 33.5 µM (IC50 μM 2nd assay, 2nd assay).

Regarding `FC(F)(F)c1ccc(Nc2ccc3[nH]cc(C4CCNCC4)c3c2)cn1` [Example 56], the inhibition at 330 µM turned out to be 58.5 ± 2.7%.

In the case of `Cn1c2c(c3cc(Nc4ccc(F)c(F)c4)ccc31)CN(CCCCS(C)(=O)=O)CC2` [Example 208], the inhibition at 330 µM came out at 85 ± 3.3%.

As for `CN(C)C(=O)c1cccc(Nc2ccc3cc[nH]c3n2)c1` [Example 7], the “Inhibition at 330 μM [%]” value is “no inhibition”.

Consider `c1cc(Nc2ccc3c(C4CCNCC4)c[nH]c3c2)cc(N2CCOCC2)c1` [Example 62], for which the inhibition at 330 µM worked out at 99.7 ± 0.3%.

With `c1cc2ccc(NC3CCNCC3)nc2[nH]1` [Example 43], the inhibition at 330 µM turned out to be 48.4 ± 20.3%.

With `FC(F)(F)c1ccc(Nc2ccc3c(C4CCNCC4)c[nH]c3c2)cn1` [Example 49], the inhibition at 330 µM came to 81.9 ± 0.6%.

For the molecule `CN1CCC(c2cn(C)c3nc(Nc4ccc5c(c4)OCO5)ccc23)CC1` [Example 149], the inhibition at 330 µM came to 84.4 ± 4.1%.

For the molecule `COc1ccc(Nc2ccc3c(C4CCNCC4)cn(C)c3c2)cc1OC` [Example 97], the inhibition at 330 µM worked out at 83.8 ± 3.7%.

For `CC(=O)N1CCN(c2ccc(Nc3ccc4c5c(n(C)c4n3)CCCC5)cc2)CC1` [Example 170], the inhibition at 330 µM was 70.8 ± 2.3%.

In the case of `CN1CCN(c2ccc(Nc3ccc4c(c3)c3c(n4C)CCS(=O)(=O)C3)cc2)CC1` [Example 182], the inhibition at 330 µM turned out to be 66.1 ± 6.9%.

`c1cc(N2CCOCC2)ccc1Nc1ccc2c(c1)OCO2` [Example 188]: the inhibition at 330 µM was 83.3 ± 6%.

Consider `CNC1CCc2c(c3ccc(Nc4ccc(OC)c(OC)c4)cc3n2C)C1` (stereo not drawn) [Example 133], for which the inhibition at 330 µM was 99.2 ± 0.3%.

As to `c1cc2c(cc1Nc1ccc3c(C4CCNCC4)c[nH]c3n1)CCC2` [Example 40], the inhibition at 330 µM stood at 94.8 ± 1%.

`COc1ccc(Nc2ccc3c(C4CCN(C)CC4)c[nH]c3c2)cc1F` [Example 99]: the inhibition at 330 µM is 94.4 ± 0.1%.

`CNC1CCc2[nH]c3ccc(Nc4ccc5c(C6CCNCC6)cn(C)c5c4)cc3c2C1` (stereo not drawn) [Example 108]: the inhibition at 330 µM amounted to 98.9 ± 0.5%.

`CN1CCC(c2c[nH]c3cc(Nc4ccc5c(c4)OCCN5C)ccc23)CC1` [Example 194]: the inhibition at 330 µM is 106.1 ± 0.3%.

Regarding `c1ccc(Nc2ccc3cc[nH]c3n2)nc1` [Example 9], the inhibition at 330 µM was determined as 70.8 ± 9.2%.

Take `CNC1CCc2c(c3ccc(Nc4cc(F)cc(F)c4)nc3n2C)C1` (stereo not drawn) [Example 29]: the inhibition at 330 µM was 85.4 ± 0.4%.

Turning to `CN1CCC(c2c[nH]c3cc(Nc4cccc(N5CCOCC5)c4)ccc23)CC1` [Example 20], the inhibition at 330 µM came to 92.8 ± 0.1%.

For `COC1CCc2c(c3cc(Nc4ccc5c(c4)OCCO5)ccc3n2C)C1` (stereo not drawn) [Example 126], the inhibition at 330 µM amounted to 82.2 ± 2.2%.
